Test results published in ChEMBL document CHEMBL5252560 (Bioorg Med Chem Lett, 2023).

Assays:
Type in all cases: functional, cell-based
HepG2 = assay: Antiproliferative activity against human HepG2 cells assessed as cell growth inhibition
A549 = assay: Antiproliferative activity against human A549 cells assessed as cell growth inhibition
Y79 = assay: Antiproliferative activity against human Y79 cells assessed as cell growth inhibition
U-937 = assay: Antiproliferative activity against human U-937 cells assessed as cell growth inhibition

Compound	IC50 (HepG2) [µM]	IC50 (A549) [µM]	IC50 (Y79) [µM]	IC50 (U-937) [µM]
COc1cc(C2=NOC(c3cc4ccccc4o3)C2)cc(OC)c1OC (configuration not stated)	> 10	> 10	> 10	> 10
CCn1c2ccccc2c2cc(C3CC(c4cc(OC)c(OC)c(OC)c4)=NN3)ccc21 (configuration not stated)	2.32	> 10	> 10	1.95
COc1cc(C2=NNC(c3coc4ccccc34)C2)cc(OC)c1OC (configuration not stated)	> 10	> 10	> 10	> 10
